In brackets after ≈: the same amount, converted by molar mass. Several values for one entry are separate records, joined by “and”; a condition that tells them apart may be missing. Identical values can stand only once. Like-named read-outs stand apart in the source and are kept apart here.
Assays:
E. coli MC4100 [1] = experiment: MIC; type: cell-based, Escherichia coli; settings: for MIC in combination with PAβN: + 25 µg/mL PAβN
Method: All bacterial strains (see description and sources Table S1) were stored at −80 °C, and grown on tryptone soya agar (TSA) at 35 °C. The iron-deprived (ID)-MHBCA (cation-adjusted Muller-Hinton Broth, Becton Dickinson, Mississauga, ON, Canada) medium was prepared as reported by refs. [21],[50]. Briefly, MHBCA was treated with 10% Chelex® 50-100 mesh (Sigma) and stirred for 6 h at room temperature. The resin was removed by filtration. Divalent Ca^2+ (CaCl2), Mg^2+ (MgCl2), and Zn^2+(ZnSO4), were then added in the iron-depleted medium at 22, 12, and 1 μg/ml respectively. Finally, the pH was adjusted to 7.3, and the medium was sterilized with a 0.2-μm filter. Regular MHBCA (i.e., not treated with Chelex®) was used to compare the inhibitory activity of conjugates in iron-sufficient conditions.
Minimal inhibitory concentrations (MICs) were performed using a broth microdilution technique according to the Clinical and Laboratory Standards Institute (CLSI) guidelines. MICs were determined in MHBCA and in ID-MHBCA. To check the impact of β-lactamases, MICs in the presence of a β-lactamase inhibitor were also determined. The inhibitor was homogenized at 2X the final concentration and added to the bacterial inoculum just before distributing cells into the wells containing the drug dilutions. The final concentration of each inhibitor was 4 μg/mL for clavulanic acid (tested against K. pneumoniae) and 200 μg/mL for 3-aminophenylboronic acid (tested against P. aeruginosa and A. baumannii).

E. coli MC4100 [2] = experiment: Bactericidal effect in the uptake assay (CFU counts); type: cell-based, Escherichia coli; settings: for dCFU (Δlog10 CFU/mL, count with drug minus growth control): time 0 h, single replicates; for dCFU (Δlog10 CFU/mL, count with drug minus growth control) / bacterial inhibition, less than the control without antibiotic: 200 μM drug; for bacterial inhibition, less than the control without antibiotic: 4-h time point, MHBCA, inoculum 8.5 log10 CFU/mL
Excerpt: The bactericidal effect determined at each time point was the difference in the concentration of bacteria in the assay tube with antibiotic and that measured in the growth control tube without drug (ΔLog10 CFU/mL). The normal distribution of the data was verified with the Shapiro–Wilk test and the statistical analysis was a comparison of repeated measures ANOVA (*p ≤ 0.05, **p ≤ 0.01, ***p ≤ 0.001) between each time point relatively to the 0-h time point.

AmpC (PDC-5) = AmpC (PDC-5) (Pseudomonas aeruginosa, UniProt P24735, R79Q/T105A); experiment: biochemical; type: biochemical, P. aeruginosa ATCC 27853
AmpC (PDC-5), sequence (P24735 27-397 R79Q/T105A): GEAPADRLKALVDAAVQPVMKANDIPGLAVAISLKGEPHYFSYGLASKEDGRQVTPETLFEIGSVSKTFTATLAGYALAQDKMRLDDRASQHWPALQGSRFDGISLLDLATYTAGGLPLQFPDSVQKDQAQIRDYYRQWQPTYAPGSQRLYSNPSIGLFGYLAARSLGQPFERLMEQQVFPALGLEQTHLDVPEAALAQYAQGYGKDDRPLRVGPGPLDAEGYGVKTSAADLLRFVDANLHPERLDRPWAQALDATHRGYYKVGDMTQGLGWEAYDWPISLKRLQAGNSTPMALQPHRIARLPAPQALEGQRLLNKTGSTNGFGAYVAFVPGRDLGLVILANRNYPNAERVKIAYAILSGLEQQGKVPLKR
Method: The purification of AmpC from the culture supernatant obtained above was conducted as described in the Catwright and Waley protocol[52] using an Affi-gel 10 matrix (Bio-Rad, Hercules, CA, USA) loaded in a column (G-Bioscience, St-Louis, MO, USA). First, the resin was washed with cold deionized water. The resin was then collected and mixed with 20 mL of the 3-aminophenylboronic acid solution (1 M KHCO3 containing 2 g of 3-aminophenyl boronic acid and 2 g of sorbitol) at 4 °C for 1 h, and the pH was maintained at 8 with solid KHCO3. The mixture was loaded onto the column and washed with 10 column volumes of 1 M NaCl/0.5 M sorbitol (pH 7), followed by 10 column volumes of 0.5 M borate (pH 7), and then 10 column volumes of the loading buffer (20 mM triethanolamine HCl/0.5 M NaCl, pH 7). The sample was dialyzed in the loading buffer before being loaded onto the column. The column was washed with the loading buffer until no absorbance was measured at OD280. AmpC was eluted in fractions of 1 mL with 0.5 M borate/0.5 M NaCl pH 7. […] The purity was visualized on a 10% bis-acrylamide gel. Only pure fractions showing a single band at 40 kDa were pooled together and then dialyzed at 4 °C in a KP buffer 0.05 M pH 7 (see Fig. S2). The protein concentration was determined with a Bradford protein reagent (Bio-Rad).
Enzyme concentrations were 20 nM for AmpC and SHV-1, and 50 nM for OXA-98. Quartz cuvette (FireflySci Inc., Northport, NY) with 1 cm length path and 2 mm inside width was used with an Ultrospec 2100 Pro (Biochrom, Harvard Bioscience Inc., USA) to acquire the kinetic measures. […] The following extinction coefficients (Δε) and wavelengths (λ) were used:
The steady-state parameters (Km and Kcat) were determined by plotting the initial velocity against substrate concentrations (Michaelis–Menten curve). The Kcat was measured using the Vmax (μM/sec) divided by the total enzyme concentration and the catalytic efficiency was further calculated (Kcat/Km). SHV-1 parameters were determined with three Michaelis–Menten curves of at least seven substrate concentrations, while OXA-98 and AmpC were duplicates of curves of at least seven substrate concentrations. […] Initial velocities were measured at room temperature (25 °C). The Vmax and Km were calculated using least squares fit regression in GraphPad version 10.2.2. Ki was measured using a derivative of IC50 with an adaptation of the Cheng–Prusoff equation[55]. […] The corrected Ki was calculated using this formula: Kicorrected=Ki(observed)/1+S/KmNCF

[3] = target: T1, purified PBP3 of P. aeruginosa (PaPBP3) (Pseudomonas aeruginosa, UniProt G3XD46); experiment: biochemical; type: binding
T1 construct: (residues 53 to 579) from P. aeruginosa ATCC 27853 (PaPBP3); His6 (C); made in house; host or cells: E. coli BL21 DE3
T1 sequence (G3XD46 53-579): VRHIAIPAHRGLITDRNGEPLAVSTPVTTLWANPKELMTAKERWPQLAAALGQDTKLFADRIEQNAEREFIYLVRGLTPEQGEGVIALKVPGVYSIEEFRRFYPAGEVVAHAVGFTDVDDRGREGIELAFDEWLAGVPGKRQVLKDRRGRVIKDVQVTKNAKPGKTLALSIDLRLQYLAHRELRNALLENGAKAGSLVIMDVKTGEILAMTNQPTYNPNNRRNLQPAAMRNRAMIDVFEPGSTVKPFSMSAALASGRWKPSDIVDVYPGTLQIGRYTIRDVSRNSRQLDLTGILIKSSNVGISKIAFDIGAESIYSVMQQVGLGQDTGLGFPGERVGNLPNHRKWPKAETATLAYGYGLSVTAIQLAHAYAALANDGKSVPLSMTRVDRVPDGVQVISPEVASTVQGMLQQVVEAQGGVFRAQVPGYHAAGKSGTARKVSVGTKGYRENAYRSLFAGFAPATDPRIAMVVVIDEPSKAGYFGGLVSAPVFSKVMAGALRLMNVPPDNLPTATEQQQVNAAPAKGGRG
Method: The PBP binding assay was done as described previously[36],[56],[57]. For each antibiotic concentration tested, a quantity of 25 to 40 μg of membrane preparation was used as the source of PBPs, depending on the species. For the purified PaPBP3, 150 ng was used in the assay. First, increasing concentrations of the test antibiotic was added to the membrane or purified PaPBP3 preparations and incubated for 10 min at 30 °C. The reporter molecule Bocillin FL was then added at 12.5 μM for the membrane PBPs preparations and at 500 nM for the pure PaPBP3 samples for an additional 20 min at 30 °C. All reactions were stopped with the addition of the Laemmli-loading buffer (Bio-Rad) containing fresh β-mercaptoethanol (Sigma). All reactions were then heated at 100°C for 3 min before migration on SDS-polyacrylamide discontinuous gel system (7.5% stacking and 10% separating). Control samples without Bocillin FL were also included to highlight autofluorescent proteins that are not PBPs.
To be able to visualize labeled PBPs after electrophoresis, gels were rinsed in water and fixed in a solution of 50% methanol and 7% acetic acid for 30 min. The fluorescent images of gels were obtained with the Typhoon FLA 9500 instrument (GE-Healthcare Bio-Sciences Inc., Baie-d’Urfé, QC, CA) using a 473 nm excitation wavelength. To obtain quantifiable data, the software Quantity One 1D analysis was used (version 4.6.6; Bio-Rad Laboratories, Richmond, CA). The volume (intensity × constant area) of each PBP was measured. […] All IC50 data were obtained from at least two independent PBP binding assays using two different sets of compound concentrations using a linear regression.

[4] = Escherichia coli, MC4100, MC4100, ID-MHBCA (−), read-out: MIC
[5] = Escherichia coli, MC4100, MC4100, MHBCA (+), without PAβN, read-out: MIC
[6] = Escherichia coli, MC4100, MHBCA (+), without PAβN, read-out: MIC
[7] = MC4100, efflux pump mutant table S5, read-out: MIC
[8] = 150 ng PaPBP3, 500 nM Bocillin FL, n = 3, read-out: IC50 PaPBP3 purified

SMILES	MIC (E. coli MC4100 [1]; [4]) [µM]	MIC (E. coli MC4100 [1]; [5]) [µM]	MIC in combination with PAβN (E. coli MC4100 [1]; MC4100, MHBCA) [µM]	dCFU (Δlog10 CFU/mL, count with drug minus growth control) (E. coli MC4100 [2]; ID FALSE (MHBCA))	dCFU (Δlog10 CFU/mL, count with drug minus growth control) (E. coli MC4100 [2]; ID TRUE (ID-MHBCA))	MIC (E. coli MC4100 [1]; [6]) [µM]	MIC ratio unconjugated β-lactam/conjugate (E. coli MC4100 [1]; MC4100, ID-MHBCA)	MIC ratio unconjugated β-lactam/conjugate (E. coli MC4100 [1]; MC4100, MHBCA)	MIC (E. coli MC4100 [1]; [7]) [µM]	AmpC (PDC-5) Vmax (AmpC (PDC-5); n = 2) [µmol·mg/min]	bacterial inhibition, less than the control without antibiotic (E. coli MC4100 [2])	IC50 [3, 8] [µM]	IC50 ratio βL/SID-βL, PaPBP3 purified [3]	Ki (AmpC (PDC-5)) [µM]	other results
N[C@@H](C(=O)N[C@@H]1C(=O)N2C(C(=O)O)=C(Cl)CS[C@H]12)c1ccccc1 [CEF, cefaclor, reference compound]	3.1 (≈ 1.14 µg/mL)	6.3 (≈ 2.32 µg/mL)	13	0.07784 and -0.144 and -0.0313	-0.00308 and -0.2509 and -0.2737										
O=C(CN(CCCCNC(=O)c1cccc(O)c1O)C(=O)c1cccc(O)c1O)NC(C(=O)NC1C(=O)N2C(C(=O)O)=C(Cl)CCC12)c1ccccc1 (stereo not shown) [BLOR, bis-catechol (azotochelin)-loracarbef]	0.006 (≈ 0.0045 µg/mL)	0.012 (≈ 0.009 µg/mL)	0.2	0.04788 and 0.3837 and 0.3931	-0.2509 and -0.1259 and 0.08749 and -0.2979 and -0.04259	0.024 (≈ 0.018 µg/mL)	512	256	0.024 (≈ 0.018 µg/mL)	11 ± 1	~ 1.2 log10 CFU/mL	0.38 ± 0.07	23		dCFU (E. coli MC4100 [2]; ID FALSE (MHBCA), time 8 h): -3.459; dCFU (E. coli MC4100 [2]; ID FALSE (MHBCA), time 10 h): -3.652; dCFU (E. coli MC4100 [2]; ID FALSE (MHBCA), time 24 h): -3.754
CC1(C)S[C@@H]2[C@H](NC(=O)[C@H](N)c3ccccc3)C(=O)N2[C@H]1C(=O)O [AMP, ampicillin, reference compound]														15 ± 1	IC50 [3]: 0.074 ± 0.029 µM
O=C(CCC(=O)N(CCCCNC(=O)c1cccc(O)c1O)CCCNC(=O)c1cccc(O)c1O)NCCCCCN(O)C(=O)CCCC(=O)NC(C(=O)NC1C(=O)N2C(C(=O)O)=C(Cl)CSC12)c1ccccc1 (stereo not shown) [MCEF, mixed ligand bis-catechol-mono-hydroxamate-cefaclor]	> 200	6.3 to 25 (≈ 6.81 to 27 µg/mL)	> 200	0.157 and -0.07022 and 0.01569 and -0.00717	0.0557 and -0.2291 and -0.2621	6.3 (≈ 6.81 µg/mL)	< 0.016		6.3 (≈ 6.81 µg/mL)						
N[C@@H](C(=O)N[C@@H]1C(=O)N2C(C(=O)O)=C(Cl)CC[C@H]12)c1ccccc1 [LOR, loracarbef, reference compound]			6.3	0.02669 and 0.4114 and -0.0313	-0.2509 and -0.1259 and -0.06378				3.1 (≈ 1.08 µg/mL)	15 ± 0.3	~ 1.2 log10 CFU/mL	8.6 ± 3.6			MIC (E. coli MC4100 [1]; MC4100, ID-MHBCA (−), read-out: MIC): 3.1 µM (≈ 1.08 µg/mL); MIC (E. coli MC4100 [1]; MC4100, MHBCA (+), without PAβN, read-out: MIC): 3.1 µM (≈ 1.08 µg/mL); Km (AmpC (PDC-5); Michaelis–Menten curves, n = 2, read-out: AmpC (PDC-5) Km): 22 ± 0.5 µM
CC1(C)SC2C(NC(=O)C(NC(=O)CN(CCCCNC(=O)c3cccc(O)c3O)C(=O)c3cccc(O)c3O)c3ccccc3)C(=O)N2C1C(=O)O (stereo not shown) [BAMP, bis-catechol (azotochelin)-ampicillin]	0.024 (≈ 0.018 µg/mL)		0.2				512	256				0.076 ± 0.031	0.97	19 ± 1	MIC (E. coli MC4100 [1]; Escherichia coli, MC4100): 0.05 µM (≈ 0.0375 µg/mL)
